Values of other authors, collected in article PMC3341666 (Biochemistry, 2009).

Key:
[1] = target: Prostate-Specific Antigen (PSA) (Homo sapiens, UniProt P07288); conditions: introduction statement, no reference given
Bovine α-Chymotrypsin = Bovine α-Chymotrypsin (Bos taurus, UniProt P00766); conditions: previous study

Chain of Prostate-Specific Antigen (PSA) (P07288 25-261): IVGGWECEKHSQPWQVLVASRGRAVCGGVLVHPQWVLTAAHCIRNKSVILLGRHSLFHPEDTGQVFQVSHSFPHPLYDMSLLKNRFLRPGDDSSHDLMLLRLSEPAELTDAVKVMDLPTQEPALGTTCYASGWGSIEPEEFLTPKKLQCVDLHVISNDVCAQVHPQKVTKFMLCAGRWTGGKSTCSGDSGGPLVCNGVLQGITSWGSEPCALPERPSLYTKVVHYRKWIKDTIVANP

Question: For O=S(=O)(F)Cc1ccccc1 [PMSF, phenylmethylsulphonyl fluoride], which “PSA inhibition (in words)” value [1] is on record?
Answer: poor PSA inhibitors

Question: Which “PSA inhibition (in words)” value [1] does the source give for Cc1ccc(S(=O)(=O)N[C@@H](Cc2ccccc2)C(=O)CCl)cc1 [TPCK, tosyl-phenylalanine chloromethylketone] here?
Answer: poor PSA inhibitors

Question: Which “fold higher Ki for chymotrypsin (vs PSA)” value (Bovine α-Chymotrypsin) does the source give for Z-SSKL(boro)L here?
Answer: ~ 65 fold
